Source: patent US20130243732A1, “ABROGATING PROINFLAMMATORY CYTOKINE PRODUCTION DURING ONCOLYTIC REOVIRUS THERAPY” ([…] INC., priority 2008, published 2013)

What was measured:
[1] = system: subcutaneous B16.F10 tumors in C57Bl/6 mice or K1735 tumors in C3H mice; assay: In vivo tumor growth and survival, i.t. RV and i.p. CP alone or in combination; design: species or system mouse; conditions: treated days 1 and 4, tumor model not stated
Experimental: C57Bl/6 (FIGS. 1A and 1C) and C3H (FIGS. 1B and 1D) mice bearing subcutaneous B16.F10 and K1735 tumors, respectively, were treated on days 1 and 4 with either reovirus alone via intratumoral (i.t.) injection (squares), cisplatin alone via intraperitoneal (i.p.) administration (triangles), or reovirus and cisplatin in combination (circles). Control treated mice (diamonds) received PBS. Tumors were measured on the days indicated and tumor volume expressed as tumor volume relative to volume at commencement of treatment (FIGS. 1A and 1B). Mice were euthanized when tumors exceeded 15 mm in any one dimension. Survival is expressed as Kaplan-Myer plots (FIGS. 1C and 1D).
(§1) For in vivo evaluation, subcutaneous B16.F10 tumors in C57Bl/6 mice or K1735 tumors in C3H mice were treated with intratumoral (i.t.) RV and intraperitoneal (i.p.) CP either alone or in combination. Tumor volume was estimated thrice weekly. […] Tumors were measured on the days indicated and tumor volume expressed as tumor volume relative to volume at commencement of treatment (FIGS. 1A and 1B). […] Survival is expressed as Kaplan-Myer plots (FIGS. 1C and 1D). […] In contrast live virus was detected in only 50% of tumors from combination treated mice but in the liver of 4/6 mice.

[2] = system: neutralizing anti-reovirus antibody (NARA); assay: Neutralising anti-reovirus antibody (NARA) response in serum; assay type: in vivo, mouse; conditions: CP used in combination with RV
Experimental: FIG. 2 is a graph showing the neutralizing anti-reovirus antibody (NARA) response after no treatment (control) or treatment with reovirus, cisplatin or the combination of reovirus and cisplatin.
For in vivo evaluation, subcutaneous B16.F10 tumors in C57Bl/6 mice or K1735 tumors in C3H mice were treated with intratumoral (i.t.) RV and intraperitoneal (i.p.) CP either alone or in combination. Tumor volume was estimated thrice weekly. Tumors and organs were harvested post-treatment for viral retrieval and histology; serum samples were tested for cytokine production and induction of neutralising anti-reovirus antibody (NARA). […] C57Bl/6 (FIGS. 1A and 1C) and C3H (FIGS. 1B and 1D) mice bearing subcutaneous B16.F10 and K1735 tumors respectively were treated on days 1 and 4 with either reovirus alone i.t. (squares), cisplatin alone i.p. (triangles), or reovirus and cisplatin in combination (circles). Control treated mice (diamonds) received PBS. Tumors were measured on the days indicated and tumor volume expressed as tumor volume relative to volume at commencement of treatment (FIGS. 1A and 1B). Mice were euthanized when tumors exceeded 15 mm in any one dimension. Survival is expressed as Kaplan-Myer plots (FIGS. 1C and 1D). […] In contrast live virus was detected in only 50% of tumors from combination treated mice but in the liver of 4/6 mice.

[3] = system: proinflammatory cytokines (IL-1I, IL-3, IL-6, IL-12, IL-17, MIP-1I, RANTES); assay: Pro-inflammatory cytokine production in serum; assay type: in vivo, mouse; conditions: CP used in combination with RV
Experimental: FIGS. 3A, 3B, 3C, 3D, 3E, 3F, and 3G are graphs showing pro-inflammatory cytokine response is abrogated by cisplatin. The response of IL-1I (FIG. 3A), IL-3 (FIG. 3B), IL-6 (FIG. 3C), IL-12 (FIG. 3D), IL-17 (FIG. 3E), MIP-1I (FIG. 3F) and RANTES (FIG. 3G) were measured after no treatment (control) or treatment with reovirus, cisplatin or the combination of reovirus and cisplatin.
as §1, with “weekly. Tumors and organs were harvested post-treatment for viral retrieval and histology; serum samples were tested for cytokine production and induction of neutralising anti-reovirus antibody (NARA).” for “weekly.”

## N.N.[Cl][Pt][Cl] [CP, cisplatin]
[1]; day 12, volume relative to commencement of treatment
  Mean relative tumor volumes ±SD: 9.87±2.80
[1]; euthanized when tumors exceeded 15 mm
  Median survival: 8 days
[2]
  neutralizing anti-reovirus antibody (NARA) response to RV: did not affect
[3]
  production of proinflammatory cytokines to RV: marked attenuation
